Data published in patent publication US20220282304A1, “SAME-SAMPLE ANTIBIOTIC SUSCEPTIBILITY TEST AND RELATED COMPOSITIONS, METHODS AND SYSTEMS” (CALIFORNIA INSTITUTE OF TECHNOLOGY, priority 2021, published 2022).

System: Escherichia coli isolate B
Test: Same-sample filtration AST, replicate treated and concurrent reference conditions (Example 3), isolate B
Format: cell-based
Conditions: 1 μg/mL ETP, 60 minutes 37° C.
Description: Isolate A was susceptible to ertapenem, while isolate B was resistant. The inoculum was small enough that no detectable difference in the sample's optical density at 600 mm (OD600) was detectable before and after inoculation by an Ultrospec 10 spectrophotometer with an analytical sensitivity of 0.01 absorbance units. After an incubation at 37° C., the media became turbid with an OD600 of 0.5 absorbance units after about 2 hours of incubation.
To begin the AST protocol, 23.75 μL of the above 8 bacteria batch culture dilutions was twice added to and mixed with 1.25 μL of water containing either 20 μg/mL or 0 μg/mL of dissolved ertapenem (ETP) antibiotic. As a result, […] at 1 μg/mL were created, and 8 untreated reference conditions were created (see Table 2 below). The […] were incubated at 37° C. for 60 minutes.
After 60 minutes of incubation, the entire volume of each antibiotic exposure was transferred to an individual cellulose acetate filter unit with a 0.2 μm pore size. […]
50 μL of fresh MHB media was spun through the filters after the first centrifugation (above) to wash away residual extracellular nucleic acids present in the fluid wetting the filters. […] In this experiment, the wash fluid was collected and analyzed to learn more about the protocol, but this washing step is not necessary for determining susceptibility of the isolate. […]

For `C[C@@H](O)[C@H]1C(=O)N2C(C(=O)O)=C(S[C@@H]3CN[C@H](C(=O)Nc4cccc(C(=O)O)c4)C3)[C@H](C)[C@H]12` [ETP, ertapenem], the “susceptibility call (threshold: reference mean + 2 SD of fraction extracellular)” value (alternative analysis) was “resistant” and the “susceptibility call (t-test treated vs untreated percent extracellular)” value (ddPCR 23S rRNA) was “resistant”.
